# Measured values published in patent publication US7064141B1, “Method for preventing, treating or inhibiting development of simple retinopathy and preproliferative retinopathy” (Takeda Pharmaceutical Company Limited, priority 1999, dated 2006).
# Key:
# Diabetic Rats = assay: Retinal potential: latency of oscillatory potential peaks of diabetic rats; type: in vivo, rat; settings: STZ-diabetic SHRSP rats
# Description: (§1) • Compound 1: (±)-1-(cyclohexyloxycarbonyloxy) ethyl-2-ethoxy-1-[[2′-(1H-tetrazol-5-yl)biphenyl-4-yl]methyl]-1H-benzimidazole-7-carboxylate (Compound 1) Method: Streptozotocin (STZ) was intravenously injected at a dose of 30 mg/kg to 10-week old male rats (Stroke-Prone Spontaneously Hypertensive Rat:SHRSP). When 9 weeks had passed since the injection of STZ, the blood sugar values of the rats were measured. The rats were divided into 3 groups, that is, a group before the administration, a solvent-administered control group and an administered group with the compound 1 (3 mg/kg/day, p.o.). Four weeks after, the blood sugar values and the retinal potentials were measured, and then, the rats were killed by bleeding by discission of the aorta abdominalis under deep ether anesthetization so as to remove the eyeball. A suspension of the compound 1 in a 0.5% methylcellulose-containing physiological saline was orally administered to the rats once a day for 4 weeks. On the other hand, 23-week old SHRSP rats were used as an untreated group.
# The retinal potential was measured by the following method. The subject animal was subjected to dark adaptation in a dark room for 90 to 120 minutes, and then, anesthetized with ketamine hydrochloride (50 mg/kg, i.m.) and immobilized with xylazine (2 mg/kg, i.m.). The limb and the head of the subject animal were fixed with a string. Mydriatic was dropped on the left eyeball to widen the pupil, and a contact lens type electrode was placed on the cornea using a contact lens-wearing auxiliary. A xenon lamp (1.2 joules) was set at a position 10 cm distant in the forward direction from the eye to be tested (the left eye), and light stimuli were controlled by a light stimulator (SLS-3100 manufactured by Nippon Koden K.K.). The retinal potential generated by light stimuli (0.5 Hz, 16 times) was amplified by a Neuropack (MEB-5100 manufactured by Nippon Koden K.K., Low cut 0.5 Hz, and sweeping time: 200 msec). The results were added and averaged. The latency of oscillatory potential peaks (O1, O2 and O3) was counted from the resultant waveforms.
# Retinal VEGF mRNA = Retinal VEGF mRNA of diabetic rats, semi-quantitative RT-PCR; type: in vivo, rat; settings: STZ-diabetic SHRSP rats
# Description: as §1, with “On the other hand, 23-week old SHRSP rats were used as an untreated group.” left out
# VEGF mRNA in the retina was quantitatively determined as follows. […] The quantity of VEGF mRNA was measured from the extracted RNA by the semi-quantitative RT-PCR process (ABI PRISM 7700: Perkin Elmer) using two kinds of fluorescent probes (FAM: VEGF, and VIC: β-action). The quantity of VEGF mRNA was corrected by the quantity of β-action mRNA and calculated provided that the quantity of VEGF mRNA of SD rat retina was defined as 1.
# [1] = 3 mg/kg/day p.o. for 4 weeks, n = 4, average ± standard deviation
smiles,measurement,setting,value
"CCOc1nc2cccc(C(=O)OC(C)OC(=O)OC3CCCCC3)c2n1Cc1ccc(-c2ccccc2-c2nnn[nH]2)cc1 (racemic) [Compound 1, (±)-1-(cyclohexyloxycarbonyloxy) ethyl-2-ethoxy-1-[[2′-(1H-tetrazol-5-yl)biphenyl-4-yl]methyl]-1H-benzimidazole-7-carboxylate]",Latency of oscillatory potential peak O1,Diabetic Rats; [1],23.81 ± 0.42 ms
same,Latency of oscillatory potential peak O2,Diabetic Rats; [1],32.88 ± 1.17 ms
same,Latency of oscillatory potential peak O3,Diabetic Rats; [1],43.39 ± 1.86 ms
same,"Latency of oscillatory potential peaks O1, O2 and O3, in words","Diabetic Rats; 3 mg/kg/day p.o., 4 weeks","latency was reduced in any of the O1, O2 and O3"
same,"Latency of oscillatory potential peak O1 compared with the control group, in words","Diabetic Rats; 3 mg/kg/day p.o., 4 weeks, Dunnett's t Test",significant improvement
same,Retinal VEGF mRNA (VEGF mRNA of SD rat determined as 1),"Retinal VEGF mRNA; 3 mg/kg/day p.o. for 4 weeks, n = 4, corrected by β-action mRNA, average ± standard deviation",0.99 ± 0.14
same,"Quantity of VEGF mRNA in the retinal tissue, in words","Retinal VEGF mRNA; 3 mg/kg/day p.o., 4 weeks",significantly decreased
